The supplement of paper PMC11451515

Tested on: P12-Ichikawa
Test: cell viability relative to DMSO control; higher = less cytotoxic
Settings: 48 h
Summary of the method: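 In 1536-well plates, 5 μl of leukemia cells were seeded per well: 500 cells/well for NOMO1 or SEM and 1000 cells/well for P12-Ichikawa. Each line had first been adapted for at least four passages in each medium. Library compounds in DMSO were pin-dosed at 11 threefold concentrations between 47 μM and 0.79 nM, and CellTiter-Glo One luminescence was read after 48 h at 37°C. Viability is a per-plate percentage relative to DMSO wells, with cell-free wells as background.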

[1] = HPLM + 10% dialyzed FBS, 0.000781 µM
[2] = HPLM + 10% dialyzed FBS, 0.00234 µM
[3] = HPLM + 10% dialyzed FBS, 0.00702 µM
[4] = HPLM + 10% dialyzed FBS, 0.0211 µM
[5] = HPLM + 10% dialyzed FBS, 0.0632 µM
[6] = HPLM + 10% dialyzed FBS, 0.19 µM
[7] = HPLM + 10% dialyzed FBS, 0.569 µM
[8] = HPLM + 10% dialyzed FBS, 1.71 µM
[9] = HPLM + 10% dialyzed FBS, 5.12 µM
[10] = HPLM + 10% dialyzed FBS, 15.4 µM
[11] = HPLM + 10% dialyzed FBS, 46.1 µM
[12] = RPMI 5 mM glucose + 10% FBS, 0.000781 µM
[13] = RPMI 5 mM glucose + 10% FBS, 0.00234 µM
[14] = RPMI 5 mM glucose + 10% FBS, 0.00702 µM
[15] = RPMI 5 mM glucose + 10% FBS, 0.0211 µM
[16] = RPMI 5 mM glucose + 10% FBS, 0.0632 µM
[17] = RPMI 5 mM glucose + 10% FBS, 0.19 µM
[18] = RPMI 5 mM glucose + 10% FBS, 0.569 µM
[19] = RPMI 5 mM glucose + 10% FBS, 1.71 µM
[20] = RPMI 5 mM glucose + 10% FBS, 5.12 µM
[21] = RPMI 5 mM glucose + 10% FBS, 15.4 µM
[22] = RPMI 5 mM glucose + 10% FBS, 46.1 µM
[23] = RPMI 5 mM glucose + 10% dialyzed FBS, 0.000781 µM
[24] = RPMI 5 mM glucose + 10% dialyzed FBS, 0.00234 µM
[25] = RPMI 5 mM glucose + 10% dialyzed FBS, 0.00702 µM
[26] = RPMI 5 mM glucose + 10% dialyzed FBS, 0.0211 µM
[27] = RPMI 5 mM glucose + 10% dialyzed FBS, 0.0632 µM
[28] = RPMI 5 mM glucose + 10% dialyzed FBS, 0.19 µM
[29] = RPMI 5 mM glucose + 10% dialyzed FBS, 0.569 µM
[30] = RPMI 5 mM glucose + 10% dialyzed FBS, 1.71 µM
[31] = RPMI 5 mM glucose + 10% dialyzed FBS, 5.12 µM
[32] = RPMI 5 mM glucose + 10% dialyzed FBS, 15.4 µM
[33] = RPMI 5 mM glucose + 10% dialyzed FBS, 46.1 µM

SMILES | cell viability [1] | cell viability [2] | cell viability [3] | cell viability [4] | cell viability [5] | cell viability [6] | cell viability [7] | cell viability [8] | cell viability [9] | cell viability [10] | cell viability [11] | cell viability [12] | cell viability [13] | cell viability [14] | cell viability [15] | cell viability [16] | cell viability [17] | cell viability [18] | cell viability [19] | cell viability [20] | cell viability [21] | cell viability [22] | cell viability [23] | cell viability [24] | cell viability [25] | cell viability [26] | cell viability [27] | cell viability [28] | cell viability [29] | cell viability [30] | cell viability [31] | cell viability [32] | cell viability [33]
CCOC1=CC(=CC=C1C/2=N/[C@@](C)(C3=CC=C(Cl)C=C3)[C@](C)(N2C(=O)N4CCN(CC4)CC(=O)N5CCOCC5)C6=CC=C(Cl)C=C6)C(C)(C)C | 104% | 104% | 101% | 99.7% | 101% | 102% | 104% | 101% | 101% | 82.9% | 87.1% | 104% | 106% | 97.9% | 109% | 112% | 108% | 101% | 103% | 92.2% | 97.6% | 89.9% | 109% | 110% | 112% | 107% | 99.2% | 102% | 107% | 97.6% | 99.7% | 89.8% | 97.7%
CC(=O)[C@H]1CC[C@H]2[C@@H]3CCC4=CC(=O)CC[C@]4(C)[C@H]3CC[C@]12C | 106% | 114% | 120% | 112% | 118% | 115% | 125% | 118% | 109% | 94.7% | 110% |  |  |  |  |  |  |  |  |  |  |  | 98.1% | 112% | 108% | 118% | 120% | 125% | 120% | 116% | 105% | 91.9% | 114%
COc1cc(OC)c(NC(=O)Nc2cc(C)on2)cc1Cl | 94.9% | 98.8% | 110% | 99.6% | 101% | 106% | 102% | 106% | 107% | 110% | 106% | 90.3% | 95.9% | 96.8% | 98.2% | 108% | 104% | 95.5% | 106% | 107% | 102% | 101% | 98.1% | 90.7% | 97% | 97.8% | 96.5% | 96.5% | 106% | 102% | 96.2% | 91.7% | 92%
O=C1CCc2ccc(OCCCCN3CCN(c4cccc(Cl)c4Cl)CC3)cc2N1 | 99% | 101% | 99.7% | 85% | 110% | 98.9% | 104% | 104% | 89.9% | 106% | 87.3% | 106% | 110% | 106% | 74.3% | 107% | 101% | 102% | 100% | 106% | 105% | 78.3% | 92.8% | 98.9% | 96.9% | 80.5% | 98.7% | 106% | 100% | 89.2% | 93.6% | 94.1% | 73.1%
COc1ccc(Nc2cc(-c3cnc(N)nc3)nc(N3CCOCC3)n2)cn1 | 98.7% | 101% | 98.4% | 102% | 103% | 94.9% | 96.7% | 89.9% | 63.7% | 71.1% | 71.9% | 89.9% | 90.9% | 93.9% | 90.7% | 100% | 87.7% | 89.5% | 79.3% | 52.2% | 54.1% | 56.6% | 93.7% | 90.4% | 95.8% | 98.7% | 102% | 98.6% | 86.3% | 88.1% | 50.4% | 54.1% | 51.7%
CCCCCCCCCCCCCCCCCCOP(=O)([O-])OC1CC[N+](C)(C)CC1 | 112% | 111% | 114% | 113% | 111% | 109% | 121% | 114% | 106% | 104% | 112% | 104% | 106% | 99.9% | 87% | 107% | 111% | 113% | 124% | 103% | 105% | 95.3% | 105% | 110% | 126% | 78.2% | 111% | 110% | 115% | 121% | 110% | 105% | 113%
O=c1[nH]cnc2c1ncn2[C@H]1CC[C@@H](CO)O1 | 95.9% | 101% | 107% | 102% | 99.6% | 105% | 108% | 112% | 105% | 99.6% | 74.1% | 83.3% | 97.3% | 94.6% | 109% | 96.1% | 101% | 104% | 108% | 102% | 91.7% | 65.5% | 83.7% | 101% | 94.3% | 90.1% | 96.8% | 96.5% | 96% | 104% | 97.1% | 84% | 67.1%
NC(=O)c1cccc(N)c1 | 106% | 105% | 70.8% | 116% | 120% | 122% | 117% | 117% | 121% | 111% | 116% | 101% | 106% | 67.8% | 121% | 115% | 124% | 108% | 117% | 120% | 117% | 113% | 101% | 112% | 78.1% | 114% | 115% | 115% | 124% | 120% | 115% | 120% | 120%
